Data: patent publication US5733559A, “Controlled release inclusion system of glycolic acid in β-cyclo-dextrin and process for the above system preparation” (priority 1995, dated 1998)
Values joined by “and” are separate entries in the source; they are usually repeats but may differ in a detail not shown here. Equal values may be shown once.

Assays:
[1] = tested on: cutaneous area (volar surfaces of the forearm); assay: Patch test (epicutaneous test): cutaneous irritation by occlusive application, average index of cutaneous irritation (IIM)
Source text: The first series of tests consisted in the test of cutaneous irritation or epicutaneous test (Patch Test) by means of occlusive application.
(§1) Free glycolic acid 70% (AG)--Du Pont
Ten healthy subjects were selected, of both sex, with negative anamnesis for allergic dermatitis by contact (DAC) and without any other pathology in process during the execution of the Test.
The ready to use plasters for dermoreactions used for the Patch Test were made of white "non woven fabric" with a dermatophilic mass of acrylic adhesive, in the shape of 1 cm diameter disc, covered by small squares of polyethylene.
The test was performed as follows: after cleansing with 70% alcoholic solution (denatured ethyl alcohol the cutaneous area to be treated (volar surfaces of the forearm), occlusive applications of the substance under examination were carried out for one hour. After that period, the plasters were removed and 15 minutes later the cutaneous reaction was evaluated and classified on the basis of an arbitrary scale.
The cutaneous reactions considered were:
According to the arbitrary scale used for the classification of the cutaneous reactions, 0 corresponds to the absence of reaction, 1 point to a light degree, 2 points to a moderate degree of reaction and 3 points to a reaction of serious gravity.
For each volunteer scores were recorded for each parameter and the mean value was calculated. […]

[2] = tested on: skin of the face (periocular and zygomatic zone); assay: Non occlusive application: cutaneous tolerability test on the face
Protocol: For the second series of tests cutaneous irritation was determined following non-occlusive applications.
Non occlusive application
as §1
Eight healthy volumary women were chosen, aged between 30 and 50 (average age 37,5).
The samples were applied on one half of the face (periocular and zygomatic zone) using a badger brush. The duration of the application was decided according to the type of skin and to the cutaneous reaction of the individual volunteer. 5 applications were carried out, one every three or more days according to the subjects.
The irritating effect was assessed before the application and one hour after the application.
The parameters considered to clinically evaluate the irritating degree of the substance under examination were the following:
irritative symptoms: erythema, pruritus, burning, desquamation, blistering, eczematous reaction.
The irritating effect was assessed on the basis of an arbitrary scale, based on clinical experience, recorded as follows:
1=Modest reaction (slight reddening, pruritus)
2=Irritative reaction (erythema, pruritus, desquamation)
3=Strong irritative reaction (erythema, burning, strong pruritus, desquamation, and more)
After every application the cutaneous reactions of each volunteer were evaluated and a relative score was given.

[3] = application time 3 min, 50% concentration, pH 2,5, right side of face, one value per subject

Question: How did the “average index of cutaneous irritation of AG compared to that of CCAG” value ([1]; 10% concentration) turn out when `O=C(O)CO` [AG, glycolic acid] was run?
Answer: Its value is “significantly and appreciably higher”.

Question: And the “average index of cutaneous irritation of free glycolic acid compared to that of glycolic acid complexed with cyclodextrins” value ([1]; at comparable concentrations (5%))?
Answer: The value was “slightly higher”.

Question: And the “case of average to serious irritation after the second application, requiring suspension of the treatment” value ([2]; 8 subjects, right side periocular and zygomatic area)?
Answer: Its value is “one”.

Question: What about the “irritation score (arbitrary scale 0-3), 1st application” value ([2]; application time 1 min, 50% concentration, pH 2,5, AG right side, CCAG left side of face, one value per subject) of the same compound?
Answer: Its value is 0.

Question: And the “irritation score (arbitrary scale 0-3), 2nd application” value ([2]; application time 2 min, 50% concentration, pH 2,5, AG right side, CCAG left side of face, one value per subject)?
Answer: The value was 2/3 and 0.

Question: And the “irritation score (arbitrary scale 0-3), 3rd application” value ([2]; application time 3 min, 50% concentration, pH 2,5, AG right side, CCAG left side of face, one value per subject)?
Answer: The value was 2 and 0.

Question: What about the “irritation score (arbitrary scale 0-3), 4th application, AG” value [2, 3] of the same compound?
Answer: Its value is 0.

Question: And the “irritation score (arbitrary scale 0-3), 5th application, AG” value [2, 3]?
Answer: The value was 0.

Question: What about the “cases of irritation of average gravity after the third application” value ([2]; in vivo) of the same compound?
Answer: Its value is 2 cases.

Question: What about the “cases of irritation of grade 2 and 2/3” value ([2]; in vivo) of the same compound?
Answer: The value was 3 cases.

Question: And the “irritation because of which subject 1 had to suspend treatment” value ([2]; subject 1, second application)?
Answer: The value was “average to serious irritation”.
